PMC9569420 (Communications Biology, 2022)

Key:
Assay in all cases: HotSpot kinase assay
Assay type in all cases: biochemical
IKKe/IKBKE = target: T1, IKKe/IKBKE (Homo sapiens, UniProt Q14164); conditions: read-out: % Enzyme Activity (relative to DMSO controls)
T1 construct: purchased Reaction Biology Corporation

MAPKAPK2 = target: T2, MAPKAPK2 (Homo sapiens, UniProt P49137); conditions: read-out: % Enzyme Activity (relative to DMSO controls)
T2 construct: purchased Reaction Biology Corporation

EPHB3 = target: T3, EPHB3 (Homo sapiens, UniProt P54753); conditions: read-out: % Enzyme Activity (relative to DMSO controls)
T3 construct: purchased Reaction Biology Corporation

TTBK2 = target: T4, TTBK2 (Homo sapiens, UniProt Q6IQ55); conditions: 10µM; read-out: % Enzyme Activity (relative to DMSO controls)
T4 construct: purchased Reaction Biology Corporation
Description: (§1) Kinase activity were performed by Reaction Biology Corporation using the “HotSpot” assay platform modified from the published procedure.

EIF2AK1 = target: T5, EIF2AK1 (Homo sapiens, UniProt Q9BQI3); conditions: 10µM; read-out: % Enzyme Activity (relative to DMSO controls)
T5 construct: purchased Reaction Biology Corporation
Description: as §1

TRPM7/CHAK1 = target: T6, TRPM7/CHAK1 (Homo sapiens, UniProt Q96QT4); conditions: 10µM; read-out: % Enzyme Activity (relative to DMSO controls)
T6 construct: purchased Reaction Biology Corporation
Description: as §1

AMPK(A1/B1/G1) = target: T7, AMPK(A1/B1/G1) (Homo sapiens, UniProt Q13131); conditions: 10µM; read-out: % Enzyme Activity (relative to DMSO controls)
T7 construct: purchased Reaction Biology Corporation
Description: as §1

HIPK1 = target: T8, HIPK1 (Homo sapiens, UniProt Q86Z02); conditions: 10µM; read-out: % Enzyme Activity (relative to DMSO controls)
T8 construct: purchased Reaction Biology Corporation
Description: as §1

TTBK1 = target: T9, TTBK1 (Homo sapiens, UniProt Q5TCY1); conditions: 10µM; read-out: % Enzyme Activity (relative to DMSO controls)
T9 construct: purchased Reaction Biology Corporation
Description: as §1

ARAF = target: T10, ARAF (Homo sapiens, UniProt P10398); conditions: 10µM; read-out: % Enzyme Activity (relative to DMSO controls)
T10 construct: purchased Reaction Biology Corporation
Description: as §1

NEK6 = target: T11, NEK6 (Homo sapiens, UniProt Q9HC98); conditions: 10µM; read-out: % Enzyme Activity (relative to DMSO controls)
T11 construct: purchased Reaction Biology Corporation
Description: as §1

NEK7 = target: T12, NEK7 (Homo sapiens, UniProt Q8TDX7); conditions: 10µM; read-out: % Enzyme Activity (relative to DMSO controls)
T12 construct: purchased Reaction Biology Corporation
Description: as §1

WNK3 = target: T13, WNK3 (Homo sapiens, UniProt Q9BYP7); conditions: 10µM; read-out: % Enzyme Activity (relative to DMSO controls)
T13 construct: purchased Reaction Biology Corporation
Description: as §1

AMPK(A2/B2/G3) = target: T14, AMPK(A2/B2/G3) (Homo sapiens, UniProt P54646); conditions: 10µM; read-out: % Enzyme Activity (relative to DMSO controls)
T14 construct: purchased Reaction Biology Corporation
Description: as §1

AMPK (A1/B2/G3) = target: T15, AMPK (A1/B2/G3) (Homo sapiens, UniProt Q13131); conditions: 10µM; read-out: % Enzyme Activity (relative to DMSO controls)
T15 construct: purchased Reaction Biology Corporation
Description: as §1

NEK3 = target: T16, NEK3 (Homo sapiens, UniProt P51956); conditions: 10µM; read-out: % Enzyme Activity (relative to DMSO controls)
T16 construct: purchased Reaction Biology Corporation
Description: as §1

WEE1 = target: T17, WEE1 (Homo sapiens, UniProt P30291); conditions: read-out: % Enzyme Activity (relative to DMSO controls)
T17 construct: purchased Reaction Biology Corporation
Description: as §1

DYRK4 = target: T18, DYRK4 (Homo sapiens, UniProt Q9NR20); conditions: 10µM; read-out: % Enzyme Activity (relative to DMSO controls)
T18 construct: purchased Reaction Biology Corporation
Description: as §1

VRK1 = target: T19, VRK1 (Homo sapiens, UniProt Q99986); conditions: 10µM; read-out: % Enzyme Activity (relative to DMSO controls)
T19 construct: purchased Reaction Biology Corporation
Description: as §1

PDK2/PDHK2 = target: T20, PDK2/PDHK2 (Homo sapiens, UniProt Q15119); conditions: 10µM; read-out: % Enzyme Activity (relative to DMSO controls)
T20 construct: purchased Reaction Biology Corporation
Description: as §1

ZAK/MLTK = target: T21, ZAK/MLTK (Homo sapiens, UniProt Q9NYL2); conditions: 10µM; read-out: % Enzyme Activity (relative to DMSO controls)
T21 construct: purchased Reaction Biology Corporation
Description: as §1

PDK1/PDHK1 = target: T22, PDK1/PDHK1 (Homo sapiens, UniProt Q15118); conditions: 10µM; read-out: % Enzyme Activity (relative to DMSO controls)
T22 construct: purchased Reaction Biology Corporation
Description: as §1

TGFBR2 = target: T23, TGFBR2 (Homo sapiens, UniProt P37173); conditions: 10µM; read-out: % Enzyme Activity (relative to DMSO controls)
T23 construct: purchased Reaction Biology Corporation
Description: as §1

PDK4/PDHK4 = target: T24, PDK4/PDHK4 (Homo sapiens, UniProt Q16654); conditions: 10µM; read-out: % Enzyme Activity (relative to DMSO controls)
T24 construct: purchased Reaction Biology Corporation
Description: as §1

AMPK(A1/B1/G2) = target: T25, AMPK(A1/B1/G2) (Homo sapiens, UniProt Q13131); conditions: 10µM; read-out: % Enzyme Activity (relative to DMSO controls)
T25 construct: purchased Reaction Biology Corporation
Description: as §1

AMPK(A2/B1/G1) = target: T26, AMPK(A2/B1/G1) (Homo sapiens, UniProt P54646); conditions: 10µM; read-out: % Enzyme Activity (relative to DMSO controls)
T26 construct: purchased Reaction Biology Corporation
Description: as §1

HPK1/MAP4K1 = target: T27, HPK1/MAP4K1 (Homo sapiens, UniProt Q92918); conditions: 10µM; read-out: % Enzyme Activity (relative to DMSO controls)
T27 construct: purchased Reaction Biology Corporation
Description: as §1

LOK/STK10 = target: T28, LOK/STK10 (Homo sapiens, UniProt O94804); conditions: 10µM; read-out: % Enzyme Activity (relative to DMSO controls)
T28 construct: purchased Reaction Biology Corporation
Description: as §1

AMPK(A2/B2/G2) = target: T29, AMPK(A2/B2/G2) (Homo sapiens, UniProt P54646); conditions: 10µM; read-out: % Enzyme Activity (relative to DMSO controls)
T29 construct: purchased Reaction Biology Corporation
Description: as §1

PDK3/PDHK3 = target: T30, PDK3/PDHK3 (Homo sapiens, UniProt Q15120); conditions: 10µM; read-out: % Enzyme Activity (relative to DMSO controls)
T30 construct: purchased Reaction Biology Corporation
Description: as §1

AMPK(A1/B2/G1) = target: T31, AMPK(A1/B2/G1) (Homo sapiens, UniProt Q13131); conditions: 10µM; read-out: % Enzyme Activity (relative to DMSO controls)
T31 construct: purchased Reaction Biology Corporation
Description: as §1

COT1/MAP3K8 = target: T32, COT1/MAP3K8 (Homo sapiens, UniProt P41279); conditions: 10µM; read-out: % Enzyme Activity (relative to DMSO controls)
T32 construct: purchased Reaction Biology Corporation
Description: as §1

BRSK1 = target: T33, BRSK1 (Homo sapiens, UniProt Q8TDC3); conditions: read-out: % Enzyme Activity (relative to DMSO controls)
T33 construct: purchased Reaction Biology Corporation

EPHB4 = target: T34, EPHB4 (Homo sapiens, UniProt P54760); conditions: read-out: % Enzyme Activity (relative to DMSO controls)
T34 construct: purchased Reaction Biology Corporation

KDR/VEGFR2 = target: T35, KDR/VEGFR2 (Homo sapiens, UniProt P35968); conditions: read-out: % Enzyme Activity (relative to DMSO controls)
T35 construct: purchased Reaction Biology Corporation

PKG1b = target: T36, PKG1b (Homo sapiens, UniProt Q13976); conditions: read-out: % Enzyme Activity (relative to DMSO controls)
T36 construct: purchased Reaction Biology Corporation

IGF1R = target: T37, IGF1R (Homo sapiens, UniProt P08069); conditions: read-out: % Enzyme Activity (relative to DMSO controls)
T37 construct: purchased Reaction Biology Corporation

ERK5/MAPK7 = target: T38, ERK5/MAPK7 (Homo sapiens, UniProt Q13164); conditions: read-out: % Enzyme Activity (relative to DMSO controls)
T38 construct: purchased Reaction Biology Corporation

MAPKAPK3 = target: T39, MAPKAPK3 (Homo sapiens, UniProt Q16644); conditions: read-out: % Enzyme Activity (relative to DMSO controls)
T39 construct: purchased Reaction Biology Corporation

STK39/STLK3 = target: T40, STK39/STLK3 (Homo sapiens, UniProt Q9UEW8); conditions: read-out: % Enzyme Activity (relative to DMSO controls)
T40 construct: purchased Reaction Biology Corporation

FES/FPS = target: T41, FES/FPS (Homo sapiens, UniProt P07332); conditions: read-out: % Enzyme Activity (relative to DMSO controls)
T41 construct: purchased Reaction Biology Corporation

GRK3 = target: T42, GRK3 (Homo sapiens, UniProt P35626); conditions: read-out: % Enzyme Activity (relative to DMSO controls)
T42 construct: purchased Reaction Biology Corporation

T32 sequence (P41279 whole entry): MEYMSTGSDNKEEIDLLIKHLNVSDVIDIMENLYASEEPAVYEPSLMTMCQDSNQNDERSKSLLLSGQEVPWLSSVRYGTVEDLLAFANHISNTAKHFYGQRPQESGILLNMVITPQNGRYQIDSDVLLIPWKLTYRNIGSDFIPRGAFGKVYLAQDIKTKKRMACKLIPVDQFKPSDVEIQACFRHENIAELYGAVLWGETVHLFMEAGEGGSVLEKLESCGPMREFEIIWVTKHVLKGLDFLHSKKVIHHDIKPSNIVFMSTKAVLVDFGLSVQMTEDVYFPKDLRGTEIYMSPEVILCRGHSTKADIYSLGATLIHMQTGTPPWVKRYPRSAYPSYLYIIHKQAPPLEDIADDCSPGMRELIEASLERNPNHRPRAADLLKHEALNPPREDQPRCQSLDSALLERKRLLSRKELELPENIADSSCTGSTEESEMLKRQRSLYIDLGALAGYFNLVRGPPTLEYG
T27 sequence (Q92918 whole entry): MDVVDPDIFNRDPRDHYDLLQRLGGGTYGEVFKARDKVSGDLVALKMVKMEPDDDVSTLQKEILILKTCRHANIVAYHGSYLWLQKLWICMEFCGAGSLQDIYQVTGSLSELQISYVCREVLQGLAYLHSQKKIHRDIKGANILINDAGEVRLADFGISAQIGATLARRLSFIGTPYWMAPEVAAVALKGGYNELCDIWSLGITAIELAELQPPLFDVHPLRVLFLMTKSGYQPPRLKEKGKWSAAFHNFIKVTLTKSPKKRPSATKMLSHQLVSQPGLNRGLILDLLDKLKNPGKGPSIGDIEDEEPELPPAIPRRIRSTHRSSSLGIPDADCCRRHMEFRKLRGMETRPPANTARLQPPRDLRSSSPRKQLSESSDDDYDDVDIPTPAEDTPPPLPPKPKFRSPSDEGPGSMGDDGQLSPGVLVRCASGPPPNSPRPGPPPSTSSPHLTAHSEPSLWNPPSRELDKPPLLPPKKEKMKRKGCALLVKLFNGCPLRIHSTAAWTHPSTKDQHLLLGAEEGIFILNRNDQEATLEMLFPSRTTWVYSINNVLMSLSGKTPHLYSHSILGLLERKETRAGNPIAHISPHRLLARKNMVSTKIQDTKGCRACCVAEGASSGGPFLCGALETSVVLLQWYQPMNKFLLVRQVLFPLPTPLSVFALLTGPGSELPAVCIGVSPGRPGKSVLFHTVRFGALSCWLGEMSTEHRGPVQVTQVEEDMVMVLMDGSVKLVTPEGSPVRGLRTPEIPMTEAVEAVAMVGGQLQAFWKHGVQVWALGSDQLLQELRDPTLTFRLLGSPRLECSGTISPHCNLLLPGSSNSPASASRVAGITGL
T3 sequence (P54753 34-998): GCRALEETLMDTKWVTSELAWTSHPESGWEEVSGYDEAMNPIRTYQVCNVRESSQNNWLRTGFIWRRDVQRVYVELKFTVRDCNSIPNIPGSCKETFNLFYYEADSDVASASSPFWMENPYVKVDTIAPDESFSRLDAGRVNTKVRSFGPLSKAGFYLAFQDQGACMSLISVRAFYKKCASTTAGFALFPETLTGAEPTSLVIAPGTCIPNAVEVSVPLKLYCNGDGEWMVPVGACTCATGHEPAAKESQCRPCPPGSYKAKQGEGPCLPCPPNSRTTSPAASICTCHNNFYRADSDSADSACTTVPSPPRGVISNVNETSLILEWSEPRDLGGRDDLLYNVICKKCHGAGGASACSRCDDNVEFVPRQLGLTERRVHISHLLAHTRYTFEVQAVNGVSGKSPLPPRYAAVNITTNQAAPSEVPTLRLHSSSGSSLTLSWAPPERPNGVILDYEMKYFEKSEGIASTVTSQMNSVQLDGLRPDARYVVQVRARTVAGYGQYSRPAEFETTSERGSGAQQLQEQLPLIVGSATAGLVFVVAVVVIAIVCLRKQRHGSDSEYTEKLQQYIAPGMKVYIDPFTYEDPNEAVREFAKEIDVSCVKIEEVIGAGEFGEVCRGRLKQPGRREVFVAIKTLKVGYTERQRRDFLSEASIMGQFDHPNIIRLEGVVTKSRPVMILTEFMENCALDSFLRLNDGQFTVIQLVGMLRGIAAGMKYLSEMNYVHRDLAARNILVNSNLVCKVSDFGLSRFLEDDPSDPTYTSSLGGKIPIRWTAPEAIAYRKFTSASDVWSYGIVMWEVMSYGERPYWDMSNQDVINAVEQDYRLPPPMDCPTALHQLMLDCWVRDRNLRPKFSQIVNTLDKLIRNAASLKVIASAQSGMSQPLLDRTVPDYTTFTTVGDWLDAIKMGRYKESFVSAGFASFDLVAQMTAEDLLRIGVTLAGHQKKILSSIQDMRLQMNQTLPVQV
T23 sequence (P37173 23-567): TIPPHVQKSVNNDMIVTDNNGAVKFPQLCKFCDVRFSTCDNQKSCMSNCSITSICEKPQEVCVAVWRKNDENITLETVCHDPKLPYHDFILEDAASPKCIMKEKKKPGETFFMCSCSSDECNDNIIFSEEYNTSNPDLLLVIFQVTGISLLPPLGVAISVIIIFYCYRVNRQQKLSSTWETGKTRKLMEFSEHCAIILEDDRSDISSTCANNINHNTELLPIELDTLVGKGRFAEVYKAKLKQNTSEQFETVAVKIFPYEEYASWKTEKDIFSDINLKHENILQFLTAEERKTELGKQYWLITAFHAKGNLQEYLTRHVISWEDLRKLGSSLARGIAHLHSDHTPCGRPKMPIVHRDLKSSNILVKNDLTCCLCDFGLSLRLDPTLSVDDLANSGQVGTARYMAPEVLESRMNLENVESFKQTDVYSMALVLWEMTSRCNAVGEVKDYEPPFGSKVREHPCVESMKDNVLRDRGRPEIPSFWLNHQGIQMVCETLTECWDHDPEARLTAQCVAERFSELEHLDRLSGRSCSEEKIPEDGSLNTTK
T6 sequence (Q96QT4 whole entry): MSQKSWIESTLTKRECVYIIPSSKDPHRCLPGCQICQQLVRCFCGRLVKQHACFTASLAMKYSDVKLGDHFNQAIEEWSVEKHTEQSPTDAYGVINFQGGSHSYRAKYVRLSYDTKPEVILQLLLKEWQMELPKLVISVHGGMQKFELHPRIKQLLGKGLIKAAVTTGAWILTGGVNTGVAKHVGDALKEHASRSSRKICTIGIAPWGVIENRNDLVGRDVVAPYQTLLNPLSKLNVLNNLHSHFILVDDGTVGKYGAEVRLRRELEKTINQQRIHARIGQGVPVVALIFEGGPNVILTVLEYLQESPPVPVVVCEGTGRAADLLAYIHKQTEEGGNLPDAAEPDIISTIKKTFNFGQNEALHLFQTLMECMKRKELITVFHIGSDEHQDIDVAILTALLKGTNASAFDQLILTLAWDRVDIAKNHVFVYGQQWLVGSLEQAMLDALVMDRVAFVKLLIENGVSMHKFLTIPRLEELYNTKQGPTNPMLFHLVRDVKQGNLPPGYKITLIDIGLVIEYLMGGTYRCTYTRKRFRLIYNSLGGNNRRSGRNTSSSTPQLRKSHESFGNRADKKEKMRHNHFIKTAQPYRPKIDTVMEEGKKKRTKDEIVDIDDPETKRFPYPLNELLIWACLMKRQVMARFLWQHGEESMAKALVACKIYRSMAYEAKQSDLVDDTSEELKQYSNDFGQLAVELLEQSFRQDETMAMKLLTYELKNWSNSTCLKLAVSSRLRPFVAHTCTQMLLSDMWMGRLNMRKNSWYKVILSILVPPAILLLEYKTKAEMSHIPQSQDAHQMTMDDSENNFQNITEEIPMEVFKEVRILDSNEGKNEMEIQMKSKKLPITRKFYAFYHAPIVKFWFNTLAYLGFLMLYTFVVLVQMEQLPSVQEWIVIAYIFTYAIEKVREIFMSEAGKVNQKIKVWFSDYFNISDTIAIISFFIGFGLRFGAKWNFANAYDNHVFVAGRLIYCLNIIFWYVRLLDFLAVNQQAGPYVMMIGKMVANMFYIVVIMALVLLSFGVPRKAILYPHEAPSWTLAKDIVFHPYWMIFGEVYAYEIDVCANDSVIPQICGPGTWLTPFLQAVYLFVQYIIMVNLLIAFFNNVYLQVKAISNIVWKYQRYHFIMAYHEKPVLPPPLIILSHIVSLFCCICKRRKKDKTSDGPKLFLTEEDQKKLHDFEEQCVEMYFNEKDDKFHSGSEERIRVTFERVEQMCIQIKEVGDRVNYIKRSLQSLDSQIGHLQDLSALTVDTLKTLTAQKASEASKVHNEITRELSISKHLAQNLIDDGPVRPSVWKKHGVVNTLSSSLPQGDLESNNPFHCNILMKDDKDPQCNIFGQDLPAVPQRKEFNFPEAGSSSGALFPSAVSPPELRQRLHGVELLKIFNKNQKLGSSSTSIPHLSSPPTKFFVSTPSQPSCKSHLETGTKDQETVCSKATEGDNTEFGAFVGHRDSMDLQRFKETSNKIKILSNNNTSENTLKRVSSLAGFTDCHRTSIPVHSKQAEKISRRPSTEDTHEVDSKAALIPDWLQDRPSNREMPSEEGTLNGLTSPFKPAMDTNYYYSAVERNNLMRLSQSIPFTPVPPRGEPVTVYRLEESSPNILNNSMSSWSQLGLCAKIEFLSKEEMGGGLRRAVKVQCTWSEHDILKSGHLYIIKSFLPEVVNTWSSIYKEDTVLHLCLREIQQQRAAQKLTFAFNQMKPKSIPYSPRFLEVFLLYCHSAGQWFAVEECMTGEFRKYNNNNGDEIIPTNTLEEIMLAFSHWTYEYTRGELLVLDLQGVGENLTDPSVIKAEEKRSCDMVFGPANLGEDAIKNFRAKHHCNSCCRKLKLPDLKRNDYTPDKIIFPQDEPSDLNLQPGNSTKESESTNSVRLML
T2 sequence (P49137 whole entry): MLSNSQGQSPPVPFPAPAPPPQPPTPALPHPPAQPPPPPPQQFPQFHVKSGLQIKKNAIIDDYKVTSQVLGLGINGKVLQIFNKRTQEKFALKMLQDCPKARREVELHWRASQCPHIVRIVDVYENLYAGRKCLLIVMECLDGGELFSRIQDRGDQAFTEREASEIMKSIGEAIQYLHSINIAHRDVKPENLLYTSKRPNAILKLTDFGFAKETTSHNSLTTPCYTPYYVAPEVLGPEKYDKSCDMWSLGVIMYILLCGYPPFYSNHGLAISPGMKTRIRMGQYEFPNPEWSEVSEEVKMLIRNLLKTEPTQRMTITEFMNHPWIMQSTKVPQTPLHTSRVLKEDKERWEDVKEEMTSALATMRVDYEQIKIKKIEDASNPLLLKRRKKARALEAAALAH

In the case of `CO[C@@H]1[C@H](N(C)C(=O)CCC(=O)NCc2cn(CCCS(=O)(=O)O)nn2)C[C@H]2O[C@]1(C)n1c3ccccc3c3c4c(c5c6ccccc6n2c5c31)C(=O)NC4` [CIMSS], the remaining activity at 10 µM (IKKe/IKBKE) is reported as 1.47%, the remaining activity at 10 µM (MAPKAPK2) is reported as 69.9% and the remaining activity at 10 µM (EPHB3) is reported as 28.9%. The remaining activity at 10 µM (TTBK2) was 95.1%, the remaining activity at 10 µM (EIF2AK1) was 82.5% and the remaining activity at 10 µM (TRPM7/CHAK1) was 91.6%. The remaining activity at 10 µM (AMPK(A1/B1/G1)) was 1.14%, the remaining activity at 10 µM (HIPK1) was 36.4% and the remaining activity at 10 µM (TTBK1) was 67.7%. The remaining activity at 10 µM (ARAF) was 154%, the remaining activity at 10 µM (NEK6) was 89% and the remaining activity at 10 µM (NEK7) was 88.5%. The remaining activity at 10 µM (WNK3) was 66.4%, the remaining activity at 10 µM (AMPK(A2/B2/G3)) was 0.63% and the remaining activity at 10 µM (AMPK (A1/B2/G3)) was 1.13%. The remaining activity at 10 µM (NEK3) was 87.3%, the remaining activity at 10 µM (WEE1) was 44.2% and the remaining activity at 10 µM (DYRK4) was 92%. It also gave a remaining activity at 10 µM (VRK1) of 81.6%, a remaining activity at 10 µM (PDK2/PDHK2) of 95.5% and a remaining activity at 10 µM (ZAK/MLTK) of 82.7%. The remaining activity at 10 µM (PDK1/PDHK1) was 97.2%, the remaining activity at 10 µM (TGFBR2) was 111% and the remaining activity at 10 µM (PDK4/PDHK4) was 93.2%. For the same compound, the remaining activity at 10 µM (AMPK(A1/B1/G2)) was 1.46%, the remaining activity at 10 µM (AMPK(A2/B1/G1)) was 0.76% and the remaining activity at 10 µM (HPK1/MAP4K1) was 2.66%. For the same compound, the remaining activity at 10 µM (LOK/STK10) was 2.86%, the remaining activity at 10 µM (AMPK(A2/B2/G2)) was 0.73% and the remaining activity at 10 µM (PDK3/PDHK3) was 96.4%. It also gave a remaining activity at 10 µM (AMPK(A1/B2/G1)) of 0.73%, a remaining activity at 10 µM (COT1/MAP3K8) of 110% and a remaining activity at 10 µM (BRSK1) of 1.55%. It also gave a remaining activity at 10 µM (EPHB4) of 19.4%, a remaining activity at 10 µM (KDR/VEGFR2) of 7.22% and a remaining activity at 10 µM (PKG1b) of 13.9%. The remaining activity at 10 µM (IGF1R) was 6.72%, the remaining activity at 10 µM (ERK5/MAPK7) was 84.5% and the remaining activity at 10 µM (MAPKAPK3) was 87.5%. It also gave a remaining activity at 10 µM (STK39/STLK3) of 19.6%, a remaining activity at 10 µM (FES/FPS) of 2.77% and a remaining activity at 10 µM (GRK3) of 46.9%.
